Reference: publication PMC9578020, “Design, synthesis, molecular modeling, and bioactivity evaluation of 1,10-phenanthroline and prodigiosin (Ps) derivatives and their Copper(I) complexes against mTOR and HDAC enzymes as highly potent and effective new anticancer therapeutic drugs” (Frontiers in Pharmacology, 2022)
Values joined by “and” are separate entries in the source; they are usually repeats but may differ in a detail not shown here. Equal entries are not always repeated. Where two headings read alike, the source gives them in different places.

Key:
MDA-MB-231BR (231BR) = assay: CCK8 anticancer activity / cytotoxicity test, 231BR; type: cell-based
Experimental: (§1) The IC50 was calculated by SPSS statistics (IBM). […] All cytotoxicity tests were performed in six biological replicates.
(§2) The anticancer activity against 231BR is of highest interest. […] Figure 3 depicts the anticancer activities of these compounds.

HTB22 = assay: CCK8 anticancer activity / cytotoxicity test, HTB22; type: cell-based; conditions: read-out: Approximate IC50, primary screening
Experimental: as §1, §2

CRL-1620 (CRL) = assay: CCK8 anticancer activity / cytotoxicity test, CRL; type: cell-based; conditions: 48 h
[1] = CCK8 cytotoxicity test on normal cell line MCF10A; conditions: human
Experimental: (§3) MDA-MB-231 (231) and HTB131 were grown with RPIM-1640 medium (with 10% Fetal Bovine Serum and 2% Penicillin-Streptomycin Solution). MDA-MB-231BR (231BR), CRL-1620 (CRL), and MCF10A were grown with DMEM (with 10% Fetal Bovine Serum and 2% Penicillin-Streptomycin Solution). HTB22 was grown with EMEM (with 10% Fetal Bovine Serum and 2% Penicillin-Streptomycin Solution). Cell lines were taken out from liquid nitrogen and thawed in a 37°C water bath. After thawing, cell cultures were transferred to 75 cm^2 flasks and incubated at 37°C with 5% CO2 for 4–7 days. After reaching 80% of cell confluence, cells were ready for subculturing or testing.
(§4) Anticancer activity tests were performed using a Cell Counting Kit-8 (CCK8, SigmaAldrich) following manufacturer’s instruction ([Shen et al., 2016]). Briefly, 100 µl of diluted cell suspension (approximately 10000 cells) was transferred to 96-well plate, incubated at 37°C with 5% CO2 for 24 h. Then, the compounds were diluted into a serial of concentrations in DMSO. Next, 0.5 µl of diluted compounds were added to 100 µl of cell medium and gently mixed, resulting in the final concentration of DMSO at 0.5%. 100 µl of the compound contained medium were then used to replace the original medium and incubated at 37°C for 48 h. After incubation with compounds, 10 µl of CCK8 reagent was added to each well and mixed by gently tapping the plate. Then, the plate was incubated at 37°C for 2–4 h until the orange color was dark enough to measure. The plate was measured using a Multiskan microplate reader (Fisher Scientific) at 450 nm. The IC50 was calculated by SPSS statistics (IBM). […] All cytotoxicity tests were performed in six biological replicates. Each compound was performed two cycles of screening: primary screening using 10 times serial dilution to determine the approximate concentration and then secondary screening using a narrow concentration range to acquire the accurate IC50.
(§5) The newly synthesized molecules in which their binding affinities were predicted in silico were tested on five different breast cancer lines, MDA-MB-231 (231), MDA-MB-361 (361), HTB131, HTB22, and MDA-MB-231BR (231BR), and one brain cancer cell line, CRL-1620 (CRL). […] Among these cell lines, 231BR attracted most of our interest because it is a brain metastatic specific breast cancer cell line that has 100% rate of brain metastasis and cannot migrate to any other organs ([Yoneda et al., 2001]). The anticancer capacities of each compound were first screened by 10 times dilution to generate different molar concentrations ranging in 5 orders of magnitudes. This wide concentration range was applied for primary screening (Supplementary Table S3) to narrow down the targets. The approximate IC50 was estimated in the primary screening step and used to design the concentration range of the secondary cytotoxicity tests (Supplementary Table S4). […] Anticancer drug taxol (paclitaxel) was used as the reference to estimate the efficacy of each compound. […] The anticancer activity against 231BR is of highest interest. Meanwhile, the same treatments were performed against the normal breast cell line, MCF10A, to test their cytotoxicity. […] A negative logarithm of IC50 was applied to represent the corresponding anticancer activity.

HTB131 = assay: CCK8 anticancer activity / cytotoxicity test, HTB131; type: cell-based
MDA-MB-231 (231) = assay: CCK8 anticancer activity / cytotoxicity test, 231; type: cell-based, human
MCF10A = assay: CCK8 cytotoxicity test on normal cell line MCF10A
Experimental: as §3, §4, §5

MDA-MB-361 (361) = assay: CCK8 anticancer activity / cytotoxicity test, 361; type: cell-based; conditions: Homo sapiens
Experimental: as §1, §2

[2] = 231BR, 48 h, 10 times serial dilution, read-out: Approximate IC50, primary screening
[3] = HTB22, 48 h, 10 times serial dilution
[4] = CRL, 10 times serial dilution, read-out: Approximate IC50, primary screening
[5] = Homo sapiens, MCF-10A, 48 h, read-out: Approximate IC50, primary screening

CCC1=N/C(=C\c2[nH]c(-c3ccn[nH]3)cc2OC)C=C1 [Compound L9]
IC50 (MDA-MB-231BR (231BR); [2]): > 168 µM | IC50 (HTB22; [3]): > 168 µM | IC50 (CRL-1620 (CRL); [4]): > 168 µM

CCC1=N/C(=C\c2[nH]c(-c3ncc[nH]3)cc2OC)C=C1 [Compound L10]
IC50 (MDA-MB-231BR (231BR); [2]): 285 µM

CCC1=N/C(=C\c2[nH]c(-c3ccc4cc[nH]c4c3)cc2OC)C=C1 [Compound L13]
IC50 at 48 h ([1]; MCF10A normal breast cells): 3.7 µM | IC50 (MDA-MB-231BR (231BR); [2]): 3.1 µM | IC50 (MDA-MB-231BR (231BR); 231BR, 48 h, narrow concentration range, read-out: IC50, secondary cytotoxicity test): 5.06 µM | IC50 (HTB131; HTB131, 48 h, narrow concentration range, read-out: IC50, secondary cytotoxicity test): 12.6 µM | IC50 (CRL-1620 (CRL); CRL, narrow concentration range, read-out: IC50, secondary cytotoxicity test): 6.53 µM | IC50 (MDA-MB-231 (231); Homo sapiens, MDA-MB-231, 231, 48 h, narrow concentration range, read-out: IC50, secondary cytotoxicity test): 3.49 µM

CCC1=N/C(=C\c2[nH]c(-c3ccc4[nH]ccc4c3)cc2OC)C=C1 [Compound L14]
IC50 (HTB22; [3]): > 79 µM | IC50 (CRL-1620 (CRL); [4]): > 79 µM

CCC1=N/C(=C\c2[nH]c(-c3cccc4cc[nH]c34)cc2OC)C=C1 [Compound L15]
IC50 (MDA-MB-231BR (231BR); 48 h, 231BR, 48 h, 10 times serial dilution, read-out: Approximate IC50, primary screening): 32 µM

CCC1=NC(=Cc2[nH]c(-c3cccn3C(=O)OC(C)(C)C)cc2OC)C=C1 [L ^7]
IC50 (MCF10A): 3.39 µM | times lower cytotoxicity on normal cell line (MCF10A): more than 80 times | IC50 (MDA-MB-231BR (231BR)): 0.0463 µM | IC50 (MDA-MB-231 (231)): 0.0758 µM

CCCCCC1=C/C(=C/c2[nH]c(-c3ccc[nH]3)cc2OC)N=C1C [Ps, Prodigiosin]
IC50 at 48 h [1]: 8.75 µM and 2.84 µg/mL | IC50 (MCF10A; [5]): 7.5 µM | IC50 (MDA-MB-231BR (231BR); 48 h, read-out: IC50, secondary cytotoxicity test, 231BR, 48 h): 0.312 µg/mL | IC50 (MDA-MB-231BR (231BR); 48 h, read-out: IC50, secondary cytotoxicity test, 231BR, 48 h, narrow concentration range): 0.963 µM | IC50 (HTB131; 48 h, read-out: Approximate IC50, primary screening): 0.75 to 7.5 µM | IC50 (HTB131; 48 h, read-out: IC50, secondary cytotoxicity test): 2.81 µM and 0.91 µg/mL | IC50 (MDA-MB-361 (361); MDA-MB-361, 48 h, read-out: Approximate IC50, primary screening, 361, 48 h, 10 times serial dilution): > 7.5 µM | IC50 (MDA-MB-361 (361); MDA-MB-361, 48 h, read-out: IC50, secondary cytotoxicity test, 361, 48 h, Table S4): > 75 µM | IC50 (MDA-MB-361 (361); MDA-MB-361, 48 h, read-out: IC50, secondary cytotoxicity test, 361, 48 h, increased drug concentration): 228 µM | IC50 (MDA-MB-361 (361); MDA-MB-361, 48 h, read-out: IC50, secondary cytotoxicity test, 361, 48 h, increased drug concentration (mg/mL)): 0.074 mg/mL | IC50 (HTB22; 48 h): > 75 µM | IC50 (CRL-1620 (CRL); read-out: Approximate IC50, primary screening): 0.75 to 7.5 µM | IC50 (CRL-1620 (CRL); read-out: IC50, secondary cytotoxicity test): 4.64 µM and 1.5 µg/mL | IC50 (MDA-MB-231 (231); Homo sapiens, MDA-MB-231, 48 h, read-out: Approximate IC50, primary screening): 0.75 to 7.5 µM | IC50 (MDA-MB-231 (231); Homo sapiens, MDA-MB-231, 48 h, read-out: IC50, secondary cytotoxicity test): 0.511 µg/mL and 1.58 µM

CC(=O)O[C@H]1C(=O)[C@@]2(C)[C@H]([C@H](OC(=O)c3ccccc3)[C@]3(O)C[C@H](OC(=O)[C@H](O)[C@@H](NC(=O)c4ccccc4)c4ccccc4)C(C)=C1C3(C)C)[C@]1(OC(C)=O)CO[C@@H]1C[C@@H]2O [Taxol, paclitaxel, reference compound]
IC50 (MCF10A; [5]): > 7.5 µM | times lower cytotoxicity on normal cell line (MCF10A; normal cell line MCF10A relative to 231BR): more than 700 times | IC50 (MDA-MB-231BR (231BR); [2]): 0.039 µM | IC50 (HTB131; HTB131, 48 h, 10 times serial dilution, read-out: Approximate IC50, primary screening): 0.057 µM | IC50 (MDA-MB-361 (361); MDA-MB-361, 361, 48 h, 10 times serial dilution, read-out: Approximate IC50, primary screening): > 7.5 µM | IC50 (CRL-1620 (CRL); [4]): 0.028 µM | IC50 (MDA-MB-231 (231); Homo sapiens, MDA-MB-231, 231, 48 h, 10 times serial dilution, read-out: Approximate IC50, primary screening): 0.0213 µM
